GI50 and TGI data for twelve compounds are collected here from PubChem BioAssay (NCI).

Among the test systems are A498 renal; CAKI-1 renal; HCC-2998 colon; M14 melanoma; MCF7 breast; NCI/ADR-RES ovarian; SK-MEL-28 melanoma; UACC-257 melanoma; UACC-62 melanoma; MOLT-4 leukemia.
Test in all cases: NCI tumour cell line growth inhibition, 48 h

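Growth conditions: 96-well plates. Treatment: test compound, 48 hours, 5 concentrations. Analysis: linear interpolation between bracketing concentrations; unreached endpoints set to highest concentration. GI50 is the concentration that inhibits growth by half. TGI: total growth inhibition.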 Bounds are passed on as bounds.

Turning to `C=CCC(N[C@H](CO)c1ccccc1)c1cn(Cc2ccccc2Cl)c(=O)n(Cc2ccccc2Cl)c1=O` (some centres undefined), the GI50 is 11 µM in the test on A498 renal; 4.46 µM in the test with CAKI-1 renal; 10.7 µM in the test on HCC-2998 colon; 6.19 µM in the test on M14 melanoma; 16.4 µM with MCF7 breast; 9.26 µM with NCI/ADR-RES ovarian. Also, the GI50 with SK-MEL-28 melanoma was 19.7 µM; in the test on UACC-257 melanoma, 23.3 µM; with UACC-62 melanoma it was 7.64 µM. Besides, the TGI in the test with A498 renal was 39.1 µM; with CAKI-1 renal, 32.2 µM; in the test on HCC-2998 colon it was 27.3 µM; with M14 melanoma, 23.1 µM; with MCF7 breast it was 68.7 µM; in the test on NCI/ADR-RES ovarian it was greater than 100 µM. The TGI in the test with SK-MEL-28 melanoma was 39.5 µM; in the test on UACC-257 melanoma, 53.4 µM; in the test on UACC-62 melanoma, 27.1 µM.
Turning to `Oc1c(Cl)cc(Cl)c2ccc(Cn3cc(-c4ccc(C(F)(F)F)cc4)nn3)nc12`, the GI50 in the test with A498 renal is 3.57 µM; in the test with CAKI-1 renal, 1.25 µM; in the test on HCC-2998 colon, 5.86 µM; in the test with M14 melanoma it was 1.93 µM; in the test on MOLT-4 leukemia it was 0.825 µM; with NCI/ADR-RES ovarian, 19 µM. In addition, the GI50 in the test with SK-MEL-28 melanoma was 1.78 µM; in the test with UACC-257 melanoma, 1.23 µM; in the test on UACC-62 melanoma, 2.61 µM. In addition, the TGI amounted to 13.8 µM with A498 renal; 2.97 µM with CAKI-1 renal; 20.3 µM in the test on HCC-2998 colon; 5.26 µM in the test with M14 melanoma; 8.8 µM in the test with MOLT-4 leukemia; 64.2 µM in the test on NCI/ADR-RES ovarian. Besides, the TGI in the test with SK-MEL-28 melanoma was 3.76 µM; with UACC-257 melanoma it was 3.3 µM; with UACC-62 melanoma, 11.9 µM.
Regarding `COC1(OC)C2(Cl)C(Cl)=C(Cl)C1(Cl)C1C2C2CC1(C(=O)O)c1ccccc12` (centres undefined), the TGI in the test with A498 renal is greater than 100 µM; in the test on CAKI-1 renal it was 83.1 µM; in the test with HCC-2998 colon it was 50.7 µM; with M14 melanoma it was 32 µM; in the test on MOLT-4 leukemia, 43.3 µM; in the test on SK-MEL-28 melanoma it was 38.9 µM. Also, the TGI in the test with UACC-257 melanoma amounted to 47.4 µM; in the test with UACC-62 melanoma it was 34.8 µM.
For the compound `O=C(/C=C\c1cccc2ccccc12)c1ccc(Cl)cc1Cl`, the TGI in the test with A498 renal was greater than 100 µM; in the test with CAKI-1 renal it was greater than 100 µM; in the test with HCC-2998 colon it was 92 µM; with M14 melanoma it was 41.3 µM; in the test on MOLT-4 leukemia it was 63.9 µM; with SK-MEL-28 melanoma, 38.4 µM. The values for the TGI in the test on UACC-257 melanoma and in the test on UACC-62 melanoma were 75.3 µM and 34 µM, respectively.
As for `O=C1c2ccccc2-c2c1c1ccccc1c(=O)n2CCCNCCn1c2c(c3ccccc3c1=O)C(=O)c1ccccc1-2`, the GI50 with A498 renal was 12.7 µM; in the test on CAKI-1 renal, 14.3 µM; in the test with M14 melanoma it was 2.8 µM; in the test with MCF7 breast, 3.47 µM; in the test with NCI/ADR-RES ovarian it was 11.3 µM; in the test with SK-MEL-28 melanoma it was 16 µM. Besides, the GI50 is 17.9 µM in the test on UACC-257 melanoma and 5.04 µM in the test with UACC-62 melanoma. Further, the TGI is 25.3 µM with A498 renal; 28.7 µM with CAKI-1 renal; 10.9 µM with M14 melanoma; 13.8 µM in the test with MCF7 breast; 25.9 µM with NCI/ADR-RES ovarian; 38 µM with SK-MEL-28 melanoma. The TGI in the test with UACC-257 melanoma was 35 µM; in the test on UACC-62 melanoma it was 19.3 µM.
Consider `CC(=O)[CH-]C(=O)c1ccccc1.CC(=O)[CH-]C(=O)c1ccccc1.CC(=O)[CH-]C(=O)c1ccccc1.[Nd+3].[OH3+]`, for which the GI50 was greater than 100 µM with A498 renal; 61 µM with CAKI-1 renal; 85.7 µM with HCC-2998 colon; 43.2 µM in the test on M14 melanoma; 28.4 µM in the test with MOLT-4 leukemia; 66.9 µM in the test with SK-MEL-28 melanoma. Also, the GI50 in the test on UACC-257 melanoma was 52.1 µM; in the test on UACC-62 melanoma, 45.5 µM. Also, the TGI in the test on A498 renal, with CAKI-1 renal, with HCC-2998 colon, in the test with M14 melanoma, with MOLT-4 leukemia and with SK-MEL-28 melanoma was greater than 100 µM in each case. The TGI in the test on UACC-257 melanoma and with UACC-62 melanoma was greater than 100 µM each time.
As to `COC(=O)C1C(=O)O[C@@H](c2cc(OC)c(OC)cc2OC)C1C(=O)OC` (mixture of isomers), the TGI in the test with A498 renal, in the test with CAKI-1 renal, in the test with HCC-2998 colon, with M14 melanoma, in the test on MOLT-4 leukemia and in the test on SK-MEL-28 melanoma was greater than 100 µM throughout. Besides, the TGI in the test with UACC-257 melanoma and in the test on UACC-62 melanoma was greater than 100 µM each time.
For `O=C(/C=C/c1cccc([N+](=O)[O-])c1)c1ccc([N+](=O)[O-])cc1`, the TGI with A498 renal, in the test with CAKI-1 renal, with HCC-2998 colon, in the test on M14 melanoma, in the test with MOLT-4 leukemia and with SK-MEL-28 melanoma was greater than 100 µM throughout. The TGI in the test on UACC-257 melanoma and in the test on UACC-62 melanoma was greater than 100 µM each time.
Regarding `O=C(O)C1[O][Sb][O]C(C(=O)O)C1O` (centres undefined), the GI50 in the test on A498 renal, in the test on CAKI-1 renal, in the test on M14 melanoma, in the test with MOLT-4 leukemia, in the test on NCI/ADR-RES ovarian and with SK-MEL-28 melanoma was greater than 100 µM throughout. The GI50 with UACC-62 melanoma was greater than 100 µM. For the same compound, the TGI in the test on A498 renal, with CAKI-1 renal, with M14 melanoma, in the test on MOLT-4 leukemia, with NCI/ADR-RES ovarian and in the test on SK-MEL-28 melanoma was greater than 100 µM in each case. Moreover, in the test on UACC-62 melanoma, the TGI was greater than 100 µM.
Regarding `Clc1cccc(C2N3CCCCC3[C@@H]3c4[nH]c5ccccc5c4CCN23)c1` (some centres undefined), the TGI in the test on A498 renal was 77.3 µM; in the test on CAKI-1 renal it was greater than 100 µM; in the test with HCC-2998 colon, 99.7 µM; in the test with M14 melanoma it was 78.5 µM; in the test with MOLT-4 leukemia it was 60.5 µM; with SK-MEL-28 melanoma, 79.9 µM. The TGI with UACC-257 melanoma was 98.2 µM; in the test on UACC-62 melanoma, 30.7 µM.
Turning to `C/C=C1/CC(C)C(C)(O)C(=O)OCC2C(O)CN3CCC(OC1=O)C23` (centres undefined), the TGI with A498 renal, in the test with CAKI-1 renal, with HCC-2998 colon, in the test on M14 melanoma, in the test on MCF7 breast and in the test on MOLT-4 leukemia was greater than 100 µM throughout. The TGI with NCI/ADR-RES ovarian, in the test on UACC-257 melanoma and in the test on UACC-62 melanoma was greater than 100 µM each time.
Regarding `NC1=NN(c2ccccc2)C(=O)C1C(=O)C(=O)Nc1ccc(Cl)c(Cl)c1` (centres undefined), the TGI in the test with A498 renal, with CAKI-1 renal, in the test on HCC-2998 colon, in the test on M14 melanoma, with MOLT-4 leukemia and in the test with SK-MEL-28 melanoma was greater than 100 µM in each case. The TGI in the test with UACC-257 melanoma and in the test with UACC-62 melanoma was greater than 100 µM throughout.
